Results as given in ChEMBL document CHEMBL1153382 (J Med Chem, 2009).
Active and inactive are the calls of the source. No cut-off for these calls is given here.

Assays:
[1] = target: T1, 5-hydroxytryptamine receptor 2A (Homo sapiens, UniProt P28223); assay: Agonist activity at human 5HT2A receptor expressed in HEK293 cells assessed as calcium flux by FLIPR assay; type: functional, cell-based
[2] = target: 5-hydroxytryptamine receptor 2B (Homo sapiens, UniProt P41595); assay: Agonist activity at human 5HT2B receptor expressed in HEK293 cells at 10 uM assessed as calcium flux by FLIPR assay relative to serotonin; type: functional, cell-based
[3] = target: T2, 5-hydroxytryptamine receptor 2C (Homo sapiens) (UniProt P28335); assay: Agonist activity at human 5HT2C receptor expressed in HEK293 cells at 10 uM assessed as calcium flux by FLIPR assay relative to serotonin; type: functional, cell-based
T2 sequence (whole entry): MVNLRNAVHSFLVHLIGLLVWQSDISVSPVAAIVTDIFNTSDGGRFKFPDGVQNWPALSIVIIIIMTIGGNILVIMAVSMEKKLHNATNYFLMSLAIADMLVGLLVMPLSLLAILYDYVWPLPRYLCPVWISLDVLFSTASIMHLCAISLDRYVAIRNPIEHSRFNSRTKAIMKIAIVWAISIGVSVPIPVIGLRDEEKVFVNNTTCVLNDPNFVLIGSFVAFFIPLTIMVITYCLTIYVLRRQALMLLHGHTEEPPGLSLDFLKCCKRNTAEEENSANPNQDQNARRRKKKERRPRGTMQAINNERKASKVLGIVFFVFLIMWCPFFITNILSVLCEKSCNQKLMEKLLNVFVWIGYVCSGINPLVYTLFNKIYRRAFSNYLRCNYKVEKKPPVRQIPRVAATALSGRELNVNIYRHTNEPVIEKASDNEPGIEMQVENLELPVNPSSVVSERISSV

[4] = target: T1, 5-hydroxytryptamine receptor 2A; assay: Agonist activity at human 5HT2A receptor expressed in HEK293 cells at 10 uM assessed as calcium flux by FLIPR assay relative to serotonin; type: functional, cell-based
Homo sapiens = organism: Homo sapiens; assay: Selectivity ratio of EC50 for human 5HT2B receptor to EC50 for human 5HT2C receptor
[5] = target: Serotonin 2 receptors; 5-HT2a & 5-HT2c (Homo sapiens) (UniProt P28223+P28335); assay: Selectivity ratio of EC50 for human 5HT2A receptor to EC50 for human 5HT2C receptor
Chain of Serotonin 2 receptors; 5-HT2a & 5-HT2c (Homo sapiens) (P28223 whole entry, looked up, one chain of several): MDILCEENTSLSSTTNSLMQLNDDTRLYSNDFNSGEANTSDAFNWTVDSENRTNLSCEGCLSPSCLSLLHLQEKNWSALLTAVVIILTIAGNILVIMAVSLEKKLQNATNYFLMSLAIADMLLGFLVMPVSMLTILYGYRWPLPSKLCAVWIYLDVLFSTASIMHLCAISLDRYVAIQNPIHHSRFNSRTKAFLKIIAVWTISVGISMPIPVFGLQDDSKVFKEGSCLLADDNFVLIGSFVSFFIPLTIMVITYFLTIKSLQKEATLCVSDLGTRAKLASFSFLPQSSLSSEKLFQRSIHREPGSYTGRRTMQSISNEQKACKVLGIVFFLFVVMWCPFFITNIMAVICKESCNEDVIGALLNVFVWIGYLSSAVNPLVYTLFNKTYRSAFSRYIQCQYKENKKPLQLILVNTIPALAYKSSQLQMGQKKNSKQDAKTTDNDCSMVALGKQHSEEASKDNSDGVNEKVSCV

Chain of 5-hydroxytryptamine receptor 2B (P41595 whole entry): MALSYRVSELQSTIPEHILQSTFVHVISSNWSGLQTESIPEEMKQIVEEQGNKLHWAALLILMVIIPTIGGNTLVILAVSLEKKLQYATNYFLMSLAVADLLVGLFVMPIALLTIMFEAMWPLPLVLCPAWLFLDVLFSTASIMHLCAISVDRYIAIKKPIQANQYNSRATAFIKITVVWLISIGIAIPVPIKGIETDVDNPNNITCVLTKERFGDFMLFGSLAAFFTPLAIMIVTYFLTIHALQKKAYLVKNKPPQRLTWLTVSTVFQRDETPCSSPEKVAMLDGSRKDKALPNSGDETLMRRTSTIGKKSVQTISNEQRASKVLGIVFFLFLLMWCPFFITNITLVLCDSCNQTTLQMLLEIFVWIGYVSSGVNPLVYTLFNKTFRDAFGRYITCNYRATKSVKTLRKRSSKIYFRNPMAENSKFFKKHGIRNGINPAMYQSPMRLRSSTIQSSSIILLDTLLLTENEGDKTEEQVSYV
T1 sequence (P28223 whole entry): as the sequence (P28223 whole entry, looked up, one chain of several) above

With `NC[C@@H]1C[C@H]1c1ccccc1` the Activity [1] was “inactive”, the Emax [2] was 72% and the Emax [3] was 102%. For the same molecule, the Emax [4] was less than 12% and the Ratio EC50 (Homo sapiens) was 3.4.

`CNC[C@H]1C[C@@H]1c1ccccc1` (racemic) was tested, and the Activity [1] was “inactive”, the Emax [2] was 26% and the Emax [3] was 101%. The Emax [4] was less than 12%.

For `NC[C@H]1C[C@H]1c1ccccc1` (racemic), the Activity [1] was “inactive”, the Emax [2] was 20% and the Emax [3] was 104%. The Emax [4] was less than 12%.

In the case of `COc1cccc([C@H]2C[C@@H]2CN)c1` (relative stereo), the Emax [2] is reported as 96%, the Emax [3] is reported as 97% and the Emax [4] is reported as 90%. The Ratio EC50 [5] was 39 and the Ratio EC50 (Homo sapiens) was 4.8.

`COc1ccccc1[C@H]1C[C@@H]1CN` (relative stereo) gave an Emax [2] of 83%, an Emax [3] of 93% and an Emax [4] of 61%. It also gave a Ratio EC50 [5] of 84 and a Ratio EC50 (Homo sapiens) of 7.7.

In the case of `Cc1ccccc1[C@H]1C[C@@H]1CN` (relative stereo), the Emax [2] is reported as 86%, the Emax [3] is reported as 99% and the Emax [4] is reported as 69%. It also gave a Ratio EC50 [5] of 71 and a Ratio EC50 (Homo sapiens) of 2.3.

`NC[C@@H]1C[C@H]1c1ccccc1` (relative stereo) was tested, and the Emax [2] was 93%, the Emax [3] was 96% and the Emax [4] was 74%. It also gave a Ratio EC50 [5] of 106 and a Ratio EC50 (Homo sapiens) of 6.

Molecule `NC[C@H]1C[C@@H]1c1c(F)cccc1F` (relative stereo) has an Emax [2] of 58%, an Emax [3] of 85% and an Emax [4] of 38%. It also gave a Ratio EC50 [5] greater than 11 and a Ratio EC50 (Homo sapiens) of 39.

In the case of `NC[C@H]1C[C@@H]1c1ccc(Br)cc1` (relative stereo), the Emax [2] is reported as 51%, the Emax [3] is reported as 87% and the Emax [4] is reported as 26%. For the same molecule, the Ratio EC50 [5] was greater than 7 and the Ratio EC50 (Homo sapiens) was 20.

`NC[C@H]1C[C@@H]1c1ccc(C(F)(F)F)cc1` (relative stereo) was tested, and the Activity [1] was “inactive”, the Emax [2] was 56% and the Emax [3] was 91%. It also gave an Emax [4] of less than 12%.

For `NC[C@H]1C[C@@H]1c1ccc(Cl)cc1` (relative stereo), the Emax [2] was 80%, the Emax [3] was 106% and the Emax [4] was 64%. It also gave a Ratio EC50 [5] of 59 and a Ratio EC50 (Homo sapiens) of 5.3.

In the case of `NC[C@H]1C[C@@H]1c1ccc2ccccc2c1` (relative stereo), the Activity [1] is reported as “inactive”, the Emax [2] is reported as 21% and the Emax [3] is reported as 60%. It also gave an Emax [4] of less than 12% and a Ratio EC50 (Homo sapiens) of 0.18.

`NC[C@H]1C[C@@H]1c1cccc(Br)c1` (relative stereo) showed an Emax [2] of 74%, an Emax [3] of 90% and an Emax [4] of 55%. The Ratio EC50 [5] was 123 and the Ratio EC50 (Homo sapiens) was 10.

In the case of `NC[C@H]1C[C@@H]1c1cccc(C(F)(F)F)c1` (relative stereo), the Emax [2] is reported as 78%, the Emax [3] is reported as 94% and the Emax [4] is reported as 35%. For the same molecule, the Ratio EC50 [5] was 50 and the Ratio EC50 (Homo sapiens) was 2.6.

Molecule `NC[C@H]1C[C@@H]1c1cccc(Cl)c1` (relative stereo) has an Emax [2] of 78%, an Emax [3] of 98% and an Emax [4] of 42%. The Ratio EC50 [5] was 189 and the Ratio EC50 (Homo sapiens) was 5.9.

`NC[C@H]1C[C@@H]1c1cccc(F)c1` (relative stereo) showed an Emax [2] of 87%, an Emax [3] of 92% and an Emax [4] of 71%. For the same molecule, the Ratio EC50 [5] was 131 and the Ratio EC50 (Homo sapiens) was 1.1.

`NC[C@H]1C[C@@H]1c1cccc(O)c1` (relative stereo) was tested, and the Emax [2] was 98%, the Emax [3] was 94% and the Emax [4] was 92%. The Ratio EC50 [5] was 75 and the Ratio EC50 (Homo sapiens) was 1.7.

With `NC[C@H]1C[C@@H]1c1ccccc1C(F)(F)F` (relative stereo) the Activity [1] was “inactive”, the Emax [2] was 102% and the Emax [3] was 101%. The Emax [4] was less than 12% and the Ratio EC50 (Homo sapiens) was 7.2.

In the case of `NC[C@H]1C[C@@H]1c1ccccc1Cl` (relative stereo), the Emax [2] is reported as 82%, the Emax [3] is reported as 94% and the Emax [4] is reported as 54%. For the same molecule, the Ratio EC50 [5] was 31 and the Ratio EC50 (Homo sapiens) was 5.8.

With `NC[C@H]1C[C@@H]1c1ccccc1F` (relative stereo) the Emax [2] was 65%, the Emax [3] was 91% and the Emax [4] was 52%. The Ratio EC50 [5] was 20 and the Ratio EC50 (Homo sapiens) was 2.1.

`NC[C@H]1C[C@@H]1c1ccccc1O` (relative stereo) was tested, and the Emax [2] was 74%, the Emax [3] was 94% and the Emax [4] was 81%. The Ratio EC50 [5] was 3.2 and the Ratio EC50 (Homo sapiens) was 3.1.
